For the assay, the target named is T1, Beta-glucosidase (Agrobacterium sp. ATCC 21400, UniProt P12614).
T1 sequence (P12614 whole entry): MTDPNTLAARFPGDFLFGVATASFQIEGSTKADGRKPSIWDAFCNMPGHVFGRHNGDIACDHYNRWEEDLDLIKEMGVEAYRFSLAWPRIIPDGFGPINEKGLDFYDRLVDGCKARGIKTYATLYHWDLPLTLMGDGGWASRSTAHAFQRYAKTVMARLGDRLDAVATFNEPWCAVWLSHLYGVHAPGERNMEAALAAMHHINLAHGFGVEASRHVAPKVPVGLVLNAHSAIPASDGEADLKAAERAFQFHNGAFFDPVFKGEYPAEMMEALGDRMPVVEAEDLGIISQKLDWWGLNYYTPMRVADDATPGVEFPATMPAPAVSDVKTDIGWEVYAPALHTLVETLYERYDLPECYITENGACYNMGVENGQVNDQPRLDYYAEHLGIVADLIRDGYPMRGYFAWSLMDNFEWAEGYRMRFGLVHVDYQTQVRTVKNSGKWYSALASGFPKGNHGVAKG
Briefly: Inhibition of Agrobacterium sp. beta-glucosidase.

Turning to `COC(=O)CCCCCNC(=O)CCCCCN1[C@H](CO)[C@@H](O)[C@H](O)[C@H]1CNS(=O)(=O)c1cccc2c(N(C)C)cccc12`, the Ki is 0.9 µM.
The compound `COC(=O)CCCCCNC(=O)[C@H](CCCCN1C[C@@H](O)[C@@H](O)[C@H](O)[C@H]1CO)NS(=O)(=O)c1cccc2c(N(C)C)cccc12` yielded a Ki of 1000 µM.
Compound `COC(=O)CCCCCNC(=O)[C@H](CCCCN1C[C@H](O)[C@@H](O)[C@H](O)[C@H]1CO)NS(=O)(=O)c1cccc2c(N(C)C)cccc12` gave a Ki of 6.2 µM.

For the origin of these results see ChEMBL document CHEMBL1141570, “Glycosidase profiling with immobilised glycosidase-inhibiting iminoalditols--a proof-of-concept study” (Bioorg Med Chem Lett, 2008).
